Laboratory results taken from PubChem BioAssay (NCI).
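Cells were grown in 96-well plates and exposed to each compound for 48 hours at five concentrations; endpoints were interpolated linearly between bracketing concentrations, or set to the highest concentration if not reached. Abbreviation: GI50, concentration required for 50% inhibition of growth. TGI: concentration producing complete growth inhibition.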

Tests used:
Experiment in all cases: NCI-60 cell line screen, 48 h
[1] = system: MDA-MB-435
[2] = system: M14 melanoma
[3] = system: HL-60(TB) leukemia
[4] = system: TK-10 renal
[5] = system: HS 578T breast
[6] = system: OVCAR-3 ovarian
[7] = system: PC-3 prostate
[8] = system: DU-145 prostate
[9] = system: IGROV1 ovarian
[10] = system: SF-268 CNS
[11] = system: SF-539 CNS
[12] = system: MCF7 breast
[13] = system: BT-549 breast
[14] = system: UO-31 renal
[15] = system: SK-MEL-2 melanoma
[16] = system: NCI/ADR-RES ovarian
[17] = system: CCRF-CEM leukemia
[18] = system: SK-OV-3 ovarian
[19] = system: RXF 393 renal
[20] = system: SW-620 colon
[21] = system: U251 CNS
[22] = system: T-47D breast
[23] = system: HT29 colon
[24] = system: RPMI-8226 leukemia
[25] = system: LOX IMVI melanoma
[26] = system: A549 NSCLC
[27] = system: NCI-H522 lung
[28] = system: UACC-257 melanoma
[29] = system: NCI-H23 lung
[30] = system: HCT-15 colon
[31] = system: OVCAR-5 ovarian
[32] = system: KM12 colon
[33] = system: MOLT-4 leukemia
[34] = system: ACHN renal
[35] = system: EKVX NSCLC
[36] = system: SNB-19 CNS
[37] = system: SN12C renal
[38] = system: SR leukemia
[39] = system: 786-0 renal
[40] = system: HCT-116 colon
[41] = system: SK-MEL-5 melanoma
[42] = system: HOP-92 NSCLC
[43] = system: SK-MEL-28 melanoma
[44] = system: SNB-75 CNS
[45] = system: MDA-MB-231 breast
[46] = system: OVCAR-4 ovarian
[47] = system: SF-295 CNS
[48] = system: MALME-3M melanoma
[49] = system: CAKI-1 renal
[50] = system: HOP-62 NSCLC
[51] = system: UACC-62 melanoma
[52] = system: NCI-H226 lung
[53] = system: HCC-2998 colon
[54] = system: K-562 leukemia
[55] = system: NCI-H460 lung
[56] = system: A498 renal
[57] = system: COLO 205 colon

For `COC1=C(OC)C(=O)C(CCCCCCCCCC[P+](c2ccccc2)(c2ccccc2)c2ccccc2)=C(C)C1=O`, the GI50 [1] was 193 nM, the TGI [1] was 1280 nM and the GI50 [2] was 366 nM. For the same compound, the TGI [2] was 1700 nM, the GI50 [3] was 59.8 nM and the TGI [3] was 409 nM. For the same compound, the GI50 [4] was 303 nM, the TGI [4] was 1380 nM and the GI50 [5] was 204 nM. For the same compound, the TGI [5] was 1620 nM, the GI50 [6] was 219 nM and the TGI [6] was 1100 nM. The GI50 [7] was 130 nM, the TGI [7] was 4040 nM and the GI50 [8] was 351 nM. For the same compound, the TGI [8] was 1730 nM, the GI50 [9] was 187 nM and the TGI [9] was 1870 nM. It also gave a GI50 [10] of 345 nM, a TGI [10] of 1440 nM and a GI50 [11] of 256 nM. It also gave a TGI [11] of 1280 nM, a GI50 [12] of 42 nM and a TGI [12] of 532 nM. For the same compound, the GI50 [13] was 249 nM, the TGI [13] was 1090 nM and the GI50 [14] was 1670 nM. It also gave a TGI [14] of 3430 nM, a GI50 [15] of 744 nM and a TGI [15] of 3510 nM. It also gave a GI50 [16] of 3130 nM, a TGI [16] of 20300 nM and a GI50 [17] of 107 nM. It also gave a TGI [17] of 1180 nM, a GI50 [18] of 255 nM and a TGI [18] of 869 nM. The GI50 [19] was 293 nM, the TGI [19] was 10700 nM and the GI50 [20] was 334 nM. The TGI [20] was 4910 nM, the GI50 [21] was 104 nM and the TGI [21] was 1170 nM. The GI50 [22] was 48.1 nM, the TGI [22] was 1040 nM and the GI50 [23] was 194 nM. For the same compound, the TGI [23] was 1050 nM, the GI50 [24] was 24.7 nM and the TGI [24] was 143 nM. For the same compound, the GI50 [25] was 299 nM, the TGI [25] was 1550 nM and the GI50 [26] was 337 nM. For the same compound, the TGI [26] was 5140 nM, the GI50 [27] was 170 nM and the TGI [27] was 795 nM. It also gave a GI50 [28] of 150 nM, a TGI [28] of 931 nM and a GI50 [29] of 160 nM. It also gave a TGI [29] of 930 nM, a GI50 [30] of 1330 nM and a TGI [30] of 3460 nM. For the same compound, the GI50 [31] was 361 nM, the TGI [31] was 1410 nM and the GI50 [32] was 145 nM. The TGI [32] was 884 nM, the GI50 [33] was 376 nM and the TGI [33] was 7780 nM. The GI50 [34] was 1070 nM, the TGI [34] was 3720 nM and the GI50 [35] was 137 nM. It also gave a TGI [35] of 4740 nM, a GI50 [36] of 125 nM and a TGI [36] of 1300 nM. The GI50 [37] was 213 nM, the TGI [37] was 1320 nM and the GI50 [38] was greater than 100000 nM. For the same compound, the TGI [38] was greater than 100000 nM, the GI50 [39] was 269 nM and the TGI [39] was 530 nM. For the same compound, the GI50 [40] was 135 nM, the TGI [40] was 329 nM and the GI50 [41] was 71.3 nM. The TGI [41] was 222 nM, the GI50 [42] was 97.7 nM and the TGI [42] was 504 nM. For the same compound, the GI50 [43] was 475 nM, the TGI [43] was 2170 nM and the GI50 [44] was 211 nM. It also gave a TGI [44] of 925 nM, a GI50 [45] of 265 nM and a TGI [45] of 1480 nM. The GI50 [46] was 166 nM, the TGI [46] was 2860 nM and the GI50 [47] was 189 nM. The TGI [47] was 585 nM, the GI50 [48] was 206 nM and the TGI [48] was 908 nM. The GI50 [49] was 853 nM, the TGI [49] was 3270 nM and the GI50 [50] was 194 nM. The TGI [50] was 491 nM, the GI50 [51] was 312 nM and the TGI [51] was 1730 nM. The GI50 [52] was 284 nM, the TGI [52] was 915 nM and the GI50 [53] was 247 nM. For the same compound, the TGI [53] was 1380 nM, the GI50 [54] was 244 nM and the GI50 [55] was 266 nM. The TGI [55] was 1160 nM, the GI50 [56] was 371 nM and the TGI [56] was 1790 nM. For the same compound, the GI50 [57] was 99.9 nM and the TGI [57] was 279 nM.
